Assay results taken from article PMC10498667 (Chemical Science, 2023).
Several values for one entry are separate records, joined by “and”; a condition that tells them apart may be missing. Identical values can stand only once. Like-named read-outs stand apart in the source and are kept apart here.

Tests used:
[1] = molecular target: T1, Electric eel acetylcholinesterase (eeAChE) (Electrophorus electricus, UniProt O42275); test: Fluorometric AChE activity assay; assay type: biochemical
T1 construct: purchased Invitrogen (AChE assay kit)
T1 sequence (O42275 24-633): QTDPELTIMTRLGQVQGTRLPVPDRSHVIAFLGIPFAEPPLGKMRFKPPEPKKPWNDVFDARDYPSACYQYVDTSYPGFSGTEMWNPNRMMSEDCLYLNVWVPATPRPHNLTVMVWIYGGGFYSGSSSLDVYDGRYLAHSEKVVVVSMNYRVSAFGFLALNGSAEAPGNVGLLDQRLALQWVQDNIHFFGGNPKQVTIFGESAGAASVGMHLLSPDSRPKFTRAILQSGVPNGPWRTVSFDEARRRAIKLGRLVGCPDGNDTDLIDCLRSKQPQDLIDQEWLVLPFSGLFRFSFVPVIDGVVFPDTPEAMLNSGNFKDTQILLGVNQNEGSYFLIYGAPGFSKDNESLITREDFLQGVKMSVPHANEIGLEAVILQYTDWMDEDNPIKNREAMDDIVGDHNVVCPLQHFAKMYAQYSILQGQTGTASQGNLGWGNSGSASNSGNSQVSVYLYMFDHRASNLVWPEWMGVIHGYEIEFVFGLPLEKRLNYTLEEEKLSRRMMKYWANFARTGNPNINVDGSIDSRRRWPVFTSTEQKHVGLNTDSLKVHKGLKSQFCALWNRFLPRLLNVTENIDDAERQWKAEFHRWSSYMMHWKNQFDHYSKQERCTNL
Source text: Inhibiting the activity of AChE can maintain a proper level of ACh under dysregulated cholinergic conditions.[10,11] Thus, the inhibitory capability of flavonoids against AChE was investigated by a previously reported fluorescent AChE assay with slight modifications.[60] […] The inclusion of three hydroxyl groups on the A ring is critical for controlling the catalytic activity of AChE, as previously reported,[49] whereas the incorporation of a chloro substituent, with three hydroxyl groups, and methoxy moieties instead of hydroxyl groups on the A ring can decrease such inhibitory activity. Flavonoids 2, 3, and 1b over 1 illustrates the importance of the position of hydroxyl groups on the A ring and the isoflavone variation in directing the flavonoids' ability to inhibit the activity of AChE. […]
All experiments were performed in triplicate.
AChE Activity Assay. The AChE inhibitory activity of flavonoids was measured by a fluorometric AChE assay kit (Invitrogen) following the manufacturer ’s protocol with slight modifications.
Electric eel acetylcholinesterase (eeAChE) was dissolved and diluted with a working solution. The eeAChE solution (50 µL) was added into a 96-well plate. Various concentrations of flavonoids were then introduced into the 96-well plate. The final concentrations of flavonoids were as follow: […]
µM). After shaking, the mixture of eeAChE and flavonoids was pre-incubated for 15 min. A reaction mixture containing acetylcholine, an AChE probe, and AbRedTM was added into the 96-well plate to initiate the reaction. The AChE activity was calculated based on the fluorescence intensity (lex/lem = 571/585 nm) of the wells that was detected after 15 min incubation. Data were normalized to the control (no inhibitor). All experiments were performed in triplicate. […]
For the disaggregation studies, Ab (25 µM) was incubated with and without CuCl2 or ZnCl2 (25 µM) for 24 h at 37 °C with constant agitation to generate preformed Ab aggregates. The resultant Ab aggregates were then treated with flavonoids (50 µM) and incubated for additional 24 h with constant agitation. For the additional disaggregation experiments, preformed Ab42 aggregates (25 µM) or Ab42 seeds (10% v/v) with or without metal ions (25 µM for CuCl2 and ZnCl2) were incubated with flavonoids (50 µM) for 24 h with constant agitation. The resultant Ab aggregates were then treated with freshly prepared Ab42

metal-free Aβ42 = molecular target: T2, metal-free Aβ42 (Homo sapiens, UniProt P05067); test: CD spectroscopy of metal-free Aβ42 (BeStSel); conditions: Aβ42 100 μM; flavonoid 200 μM; 37 °C; 24 h
T2 construct: purchased Peptide Institute, Inc. (Osaka, Japan)
T2 sequence (P05067 672-713 limits assumed): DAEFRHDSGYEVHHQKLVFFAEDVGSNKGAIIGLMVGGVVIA
Description: CD Spectroscopy. Metal-free Ab42 (100 µM) was incubated with and without 5, 4b, and 6 (200 µM) for 24 h in 20 mM HEPES, pH 7.4, 150 mM NaF at 37 °C with constant agitation (250 rpm).
CD spectra were collected in the range from 195 nm to 255 nm. The digital integration time, the bandwidth, and the scanning speed were 4 s, 2 nm, and 20 nm/min, respectively. Each spectrum was smoothed by Fourier transforms. The change in the secondary structure of metal-free Ab42 […]
treated with a flavonoid was analyzed following the previously reported BeStSel method.25 The measurements were conducted in triplicate. […]
mM HEPES, pH 7.4, 150 mM NaCl) with or without Ab40 (25 µM) in the absence and presence of CuCl2 or ZnCl2 (25 µM). Abs spectra of the samples were collected for 24 h at 37 °C.
6c [3-(3,4-Dihydroxyphenyl)-5,6,7-trimethoxy-4H-chromen-4-one]. […] After 4 h, the reaction mixture was extracted in a solution of ethyl acetate (EtOAc) and saturated sodium acetate (NaOAc; 0.12 g/mL). The organic layer was collected, washed with brine, dried with sodium sulfate ([…]), filtered, and concentrated. The crude product was purified by column chromatography (SiO2; EtOAc:hexanes = 1:1) to yield 6c [Rf = 0.3; yellow powder; 650 mg, 2.0 mmol (yield = 31%)] that was used for the next step without further purification. 1H NMR [400 MHz, […]

MTT cytotoxicity assay = assay type: cell-based; conditions: human
Description: Flavonoid 6 was synthesized following previously reported procedures with modifications.[66–68] […] It should be noted that cell viability was calculated, relative to that of the cells containing an equivalent amount of DMSO.
Cell viability was determined by the MTT assay [MTT = 3-(4,5-dimethylthiazol-2-yl)-2,5-diphenyltetrazolium bromide]. Cells were seeded in a 96-well plate (15,000 cells/100 µL) and treated with the samples {[flavonoid] = 5, 10, 25, 50, and 100 µM (1% v/v DMSO)}. After 24 h incubation, 5Y cells were washed with phosphate buffered saline (PBS; GIBCO). MTT [5 mg/mL in PBS (pH 7.4, GIBCO); 25 µL] was added to each well and the plate was incubated for 4 h at 37 °C. The formazan produced by cells was solubilized using an acidic solution of DMF (pH 4.5, 50% v/v, aq) and sodium dodecyl sulfate (SDS; 20% w/v) overnight at room temperature in the dark. Absorbance was measured at 600 nm by a microplate reader (Molecular Devices). Cell viability, relative to that of the cells containing an equivalent amount of DMSO, was calculated.
The measurements were conducted in triplicate. […]

[2] = fluorometric assay, eeAChE, read-out: IC50 for AChE inhibition
[3] = human neuroblastoma 5Y cells, 100 μM flavonoid, 24 h, 5Y cells, relative to DMSO, read-out: cell viability
[4] = 100 μM flavonoid, 24 h, 5Y cells, relative to DMSO, read-out: cell viability

Row | Compound | IC50 [1, 2] [µM] | Random Coils (%) of metal-free Aβ42 (metal-free Aβ42) | Turn (%) of metal-free Aβ42 (metal-free Aβ42) [%] | α-Helix (%) of metal-free Aβ42 (metal-free Aβ42) [%] | β-Sheet (%) of metal-free Aβ42 (metal-free Aβ42) | viability at 24 h, 100 μM (MTT cytotoxicity assay; [3]) [%] | inhibitory activity against AChE (IC50 could not be obtained) ([1]; fluorometric assay, eeAChE) | viability at 24 h, 100 μM (MTT cytotoxicity assay; [4]) [%] | IC50 [1] [µM] | viability at 24 h, 100 μM (MTT cytotoxicity assay) [%]
1 | O=c1cc(-c2ccccc2)oc2c(Cl)c(O)c(O)c(O)c12 [compound 5, 8-chlorobaicalein] | 12.3 | 19.7% and 19.7 (±15.5) % | 12.5 | 1.2 | 66.7% and 66.7 (±15.3) % | ~60 |  |  |  | 
2 | O=c1c(-c2ccccc2)coc2cc(O)c(O)c(O)c12 [4b, 5,6,7-trihydroxyisoflavone] | 1.4 | 53.8% and 53.8 (±5.9) % | 10.3 | 0.4 | 35.5% and 35.5 (±5.7) % | ~70 |  |  |  | 
3 | O=c1cc(-c2ccccc2)oc2ccc(O)c(O)c12 [compound 3, 5,6-dihydroxyflavone] | 4.51 |  |  |  |  | ~50 |  |  |  | 
4 | O=c1cc(-c2ccccc2)oc2cc(O)cc(O)c12 [compound 1, chrysin] |  |  |  |  |  |  | negligible inhibitory activity | ~30 |  | 
5 | O=c1cc(-c2ccccc2)oc2cc(O)c(O)cc12 [compound 2, 6,7-dihydroxyflavone] |  |  |  |  |  |  |  |  | 4.18 | ~60
6 | O=c1cc(-c2ccccc2)oc2cc(O)c(O)c(O)c12 [compound 4, baicalein] |  |  |  |  |  |  |  | ~70 | 1.95 | 
7 | O=c1c(-c2ccc(O)c(O)c2)coc2cc(O)c(O)c(O)c12 [compound 6, 3-(3,4-dihydroxyphenyl)-5,6,7-trihydroxy-4H-chromen-4-one] | 0.19 | 13.6% | 38.1 | 1.5 | 46.7% |  |  |  |  | 
